Patent US20250195613A1, “COMPOSITIONS AND METHODS FOR REDUCING BIOFILM FORMATION” (Trustees of Tufts College, priority 2022, published 2025)
“Also recorded” adds a separate entry of the source.

Experiments:
Assay type in all cases: cell-based, Streptococcus mutans
S. mutans UA159 = test: Biofilm growth CFU assay (fraction biofilm and total growth); conditions: for fractional biofilm formation (cells in biofilm relative to whole population), in words / overall (total) growth of the bacterial population / toxicity to S. mutans: 5 h, TH25% with 1% sucrose; for fractional biofilm formation (cells in biofilm relative to whole population), in words: 96-well polystyrene plate; for overall (total) growth of the bacterial population / toxicity to S. mutans: biofilm CFU per ml + supernatant CFU per ml
Method: The bacterial strain S. mutans UA159 (ATCC, 700610) was originally isolated from a child with active cavities. Bacteria were cultivated in Bacto Todd-Hewitt broth (TH; BD, 249240) or brain-heart infusion (BHI; BD, 237500) 1.5% agar plates at 37° C. with 5% CO2. To promote biofilm formation, S. mutans was grown in 25% TH supplemented with 1% sucrose.
(§1) Overnight cultures of S. mutans UA159 were inoculated from glycerol stocks and grown for 12-18 h in 50% TH at 37° C. with 5% CO2. Biofilms were prepared by diluting overnight cultures 1:20 into 50-100 μl of media (TH25% with 1% sucrose) and any polymer solution in a 96-well polystyrene plate for a starting inoculum of 10^7-10^8 CFU per ml. The cultures were then incubated statically for 5 hours at 37° C. with 5% CO2.
To measure total growth and relative biofilm formation, the number of cells in the biofilm and in suspension were counted using a colony forming unit (CFU) assay as previously described. See Werlang, C. A. et al., “Mucin O-glycans suppress quorum-sensing pathways and genetic transformation in Streptococcus mutans,” Nat. Microbiol. 1-10 (2021) doi: 10.1038/s41564-021-00876-1, which is incorporated herein in its entirety by reference for all purposes. Briefly, the supernatant was removed and transferred to a new 96-well plate, the biofilm was washed twice with 100 μl of phosphate-buffered saline (PBS), and the washes were added to the supernatant. The biofilm was then detached and resuspended in 100 μl of PBS by vigorously scraping with a pipette tip for 30 s. Each culture fraction was then serially diluted and plated on BHI agar. Colonies were counted after 24 h growth at 37° C. with 5% CO2. The fraction biofilm was calculated as (biofilm CFU per ml)/(biofilm CFU per ml+supernatant CFU per ml). The total growth was calculated as biofilm CFU per ml+supernatant CFU per ml. All of the conditions had at least three biological replicates (individual data points shown on graphs).

S. mutans biofilms [1] = test: Total biofilm biomass by crystal violet staining; conditions: for total bacterial biomass incl. exopolysaccharides (crystal violet), in words: OD 580 nm
Method: as §1
Total biofilm biomass was measured using crystal violet staining. The supernatant was aspirated, and the biofilm was washed twice with 100 μl of PBS. Then 100 μl of 0.1% crystal violet was added to each well and incubated for 15 minutes at room temperature. The crystal violet solution was removed, and the stained biofilms were washed five times with 200 μl of distilled water. Finally, 100 μl of 30% acetic acid was added to each well to extract the absorbed crystal violet, and the OD was measured at 580 nm on a microtiter plate reader.

S. mutans = test: Polymer attachment assay (bacterial attachment to polymer coating); conditions: coatings from 2 mg per ml polymer on polystyrene, 1 hour at 37° C.
Method: Bacterial attachment to polymer coating was assayed as previously described. See Co, J. Y., Crouzier, T. & Ribbeck, K., “Probing the Role of Mucin-Bound Glycans in Bacterial Repulsion by Mucin Coatings,” Adv. Mater. Interfaces 2, 1500179 (2015), which is incorporated herein in its entirety by reference for all purposes. Briefly, coatings were prepared by incubating 100 μl of polymer solutions (2 mg per ml in Milli-Q purified water) on 96-well polystyrene plates for 2 h at 37° C., followed by three washes with 200 μl of sterile-filtered distilled water. Overnight cultures of S. mutans were centrifuged and resuspended in sterile PBS at an OD600 of 0.4, and 50 μl of the washed culture were added to each well. The bacteria were incubated on the coating for 1 hour at 37° C. To measure cell attachment, unattached bacteria were aspirated, wells were washed three times with 200 μl of PBS, and the remaining bacteria were detached with a pipette and resuspended in PBS before being quantified by a CFU assay.

S. mutans biofilms [2] = test: Confocal microscopy of SYTO9-stained biofilms; conditions: SYTO9 stain
Method: For confocal microscopy, S. mutans biofilms were prepared as described above on 96-well glass-bottom plates with 5 nM of SYTO9 green fluorescent nucleic acid stain (ThermoFisher, S34854) added to the cultures. Cultures were imaged on a confocal laser-scanning microscope (LSM 800; Zeiss) with a 63×/1.4 NA oil immersion objective with a step size of 0.5 μm. The excitation wavelength for SYTO9 was 488 nm. At least three stacks were recorded for each well, and at least three independent wells were analyzed for each condition. Images were analyzed with Zeiss ZEN 2.1 imaging software (Thornwood, NY, USA).

Row | Compound | fractional biofilm formation (cells in biofilm relative to whole population), in words (S. mutans UA159) | overall (total) growth of the bacterial population / toxicity to S. mutans (S. mutans UA159) | total bacterial biomass incl. exopolysaccharides (crystal violet), in words (S. mutans biofilms [1]) | S. mutans binding to polymer coating (S. mutans) | S. mutans binding to polymer coating (S. mutans; listed as MUC5B mucin) | biofilm fraction of culture (S. mutans UA159; 0.5% MUC5B mucin) [%] | surface attachment / community structure by confocal microscopy (S. mutans biofilms [2]) | surface attachment / community structure by confocal microscopy (S. mutans biofilms [2]; listed as mucin) | reduction of biofilm biomass (S. mutans biofilms [1]; crystal violet staining) [%]
1 | CC(=O)N[C@H]1C(O)O[C@H](CO)[C@H](O)[C@@H]1O (stereo partly drawn) [Soluble GalNAc, N-acetyl galactosamine] | do not have a statistically significant impact | – | – | – | – | – | – | – | –
2 | CC(=O)N[C@H]1[C@H]([C@H](O)[C@H](O)CO)OC(O)(C(=O)O)C[C@@H]1O (stereo partly drawn) [soluble NeuNAc, N-Acetylneuraminic acid] | small proportional reduction in the fraction of biofilm | toxic to S. mutans; also recorded: strong killing effect | reduction in total bacterial biomass | – | – | – | – | – | –
3 | MUC5B: mucin purified by liquid chromatography from pooled human submandibular saliva | – | do not affect the overall growth | reduce the total bacterial biomass | do not strongly bind | did not bind | 30 | no longer attached to the surface | no longer attach to the surface | 77
